Reference: US4820712A, “Sparsomycin (SC-RS) compounds having antitumor activity, a process for their preparation and pharmaceutical compositions containing sparsomycin (SC-RS) compounds” (priority 1986, dated 1989)
Where two headings read alike, the source gives them in different places.

Key:
[1] = tested on: Leukemia L 1210 cells; assay: in vitro clonogenic L1210 assay (inhibition of colony formation in soft agar); type: cell-based; details: Mus musculus, L1210, 72 h, read-out: ID50 (dose giving 50% inhibition of L1210 colony formation)
Procedure: The in vitro clonogenic assay was effected in Leukemia L 1210 cells in soft agar medium (0.3%). […] In the analysis, the inhibition of the L 1210 colony formation by sparsomycin and derivatives thereof is determined for various concentrations, and the dose giving 50% inhibition of the colony formation, as compared with non-treated control cells is calculated (ID50).
From a suspension culture one hundred L 1210 cells are plated out in 35 mm culture dishes (Falcon) containing 1 ml soft agar culture medium and the compound to be investigated in suitable concentrations. The soft agar culture medium consists of Dulbecco's medium supplemented with 20% horse serum, 60 μmole 2-mercaptoethanol, 20 mg/ml L-asparagine, 75 mg/ml DEAE dextran (molecular weight 2×10^6) and 0.3% bacto agar (Difco). The culture dishes were incubated at 37° C. in an atmosphere of 10% CO2 in humidified air for 3 days. After this period of continuous exposure to the medicament the colonies were counted and dose-effect curves made. From these curves, the medicament dose is calculated which causes 50% inhibition of the colony formation as compared with non-treated control cells.

[2] = target: ribosomes from S. cerevisiae Y166 (peptidyl transferase activity); assay: polyphenylalanine synthesis assay, S. cerevisiae ribosomes; type: biochemical; details: concentration giving 50% inhibition relative to control; 30° C., 30 min; read-out: ED50 polyPhe synthesis S. cerevisiae
Procedure: (§1) The peptidyl transferase activity was measured by the polyphenylalanine synthesis assay (Nirenberg and Matthei, Proc. Natl. Acad. Sci. USA 47 (1961) 1588), the fragment reaction (Monro, Methods Enzymol. 20 (1971) 472) and the puromycin reaction. In all the in vitro tests, i.e. polyPhe synthesis, fragment reaction and puromycin reaction, ribosomes from E. coli MRE600 and S. cerevisiae Y166 were used. The reaction mixture for polyphenylalanine synthesis was slightly different for E. coli and S. cerevisiae.
S. cerevisiae: The test was carried out as indicated above for E. coli. The phosphoenol pyruvate and pyruvate kinase were, however, replaced by creatine phosphate (20 mM) and creatine phosphokinase (50 μg/ml). The incubation was performed at 30° C. for 30 min and the samples were processed as described above. Under these conditions the control samples polymerized 5-14 and 3-8 molecules of phenylalanine per ribosome derived from E. coli and S. cerevisiae, respectively. Ribosomes and supernatant factors from E. coli and S. cerevisiae were prepared according to standard procedures, described by Staehelin and Maglott, Methods Enzymol. 20 (1971) 449, and by Sanchez-Madrid et al, Eur. J. Biochem. 98 (1979) 409.
(§2) The concentration of sparsomycin or an analog giving 50% inhibition of the protein synthesis relative to the control is given in ED50.

[3] = tested on: ribosomes from E. coli MRE600 (peptidyl transferase activity); assay: fragment reaction, E. coli ribosomes; type: biochemical; details: 50% inhibition relative to control; 0° C., 30 min, 33% methanol; read-out: ED50 Fragment reaction E. coli
Procedure: as §1
(§3) The fragment reaction was carried out in 150 μl of 33 mM Tris-HCl pH 7.4, 270 mM KCl, 13 mM magnesium acetate containing 1 mg/ml of ribosomes, 2 mM puromycin, 1 pmol of N-acetyl-[^3 H]Leu-ACCAC(U), the required concentration of sparsomycin or its analogue and 33% methanol. The reaction was initiated by the addition of the alcohol and allowed to proceed at 0° C. for 30 min, and was then stopped by the addition of 100 μl of 0.3M sodium acetate pH 5.5 saturated with MgSO4. The samples were extracted with 1.5 ml of ethyl acetate and 1 ml of the organic phase was checked for radioactivity. The 3' terminal pentanucleotide N-acetyl-[^3 H]Leu-ACCAC(U) was prepared from N-acetyl-[^3 H]Leu-tRNA by ribonuclease T1 as described by Monro.
as §2

[4] = target: ribosomes from S. cerevisiae Y166 (peptidyl transferase activity); assay: fragment reaction, S. cerevisiae ribosomes; type: biochemical; details: 50% inhibition relative to control; 0° C., 30 min, 33% methanol; read-out: ED50 Fragment reaction S. cerevisiae
Procedure: as §1, §3, §2

[5] = tested on: ribosomes from E. coli MRE600 (peptidyl transferase activity); assay: puromycin reaction, E. coli ribosomes; type: biochemical; details: 50% inhibition relative to control; read-out: ED50 Puromycin reaction E. coli
Procedure: as §1
The puromycin reaction was carried out in 25 μl of 30 mM KCl, 50 mM NH4 Cl, 30 mM Tris-HCl pH 7.8, 20 mM MgCl2, 10 pmol of ribosomes, 100 μg/ml of poly(U) and 15 pmol of N-acetyl-[^3 H]Phe-tRNA. The reaction mixture was incubated for 30 min at 37° C. and then 1 μl of 20 mM puromycin was added and incubation was followed for 5 more min. To the samples 250 μl of 0.1M sodium carbonate and 0.7 ml of ethyl acetate were added, shaken for 1 min, centrifuged to separate the phases and 0.5 ml of the upper organic phase taken for estimating the radioactivity.
as §2

[6] = tested on: E. coli MRE600; assay: inhibition of bacterial growth; type: cell-based
Procedure: Inhibition of bacterial growth was tested in solid as well as in liquid medium. For the test on agar plates, petri dishes containing 15 ml of LB medium (10 g/l bactotryptone, 5 g/l yeast extract and 5 g/l NaCl) were covered with 5 ml of the same medium--kept melted at 40° C.--containing 40 μl of a culture of the required bacterium at approximately an A550 of 2. After solidification, 3 mm filter disks containing 4 μl of a 10 mM solution of the antibiotic in 50EtOH/DMSO were placed on the surface of the agar and the plates were incubated at 37° C. for 24 h. For the test in liquid medium, E. coli MRE600 was grown in LB medium supplemented with 0.2% of glucose to exponential phase (A560 =0.1) and distributed in 1 ml aliquots in tubes containing the required amount of antibiotic. The tubes were incubated at 37° C. for 4 h, subsequently diluted with 3 ml of 0.1% of sodium azide to stop growth and the absorption at 550 nm was measured. The absorption of the medium without addition of antibiotic was considered as 100% growth.

[7] = tested on: L1210 leukemia; assay: in vivo antitumor assay, L1210 leukemia; design: species or system CDF1 mice
Procedure: (§4) The antitumor activity of the present compounds has also been investigated by in vivo assays. In the assays, mice were treated for nine days in succession, starting at 24 hours after the time of tumor implant.
(§5) The results are shown in tables 4, 5 and 6 and represent the number of tumor-bearing mice surviving after administration of optimal doses of the test compound, expressed as a treatment/control (T/C×100%) ratio. In the tables, information is provided with respect to the sex, dose, weight loss of treated animals compared to control animals, and the number of survivors in groups of 6 mice.

[8] = tested on: P388 leukemia; assay: in vivo antitumor assay, P388 leukemia; design: species or system CDF1 mice
Procedure: as §4, §5

[9] = tested on: RC (renal cell) carcinoma; assay: in vivo antitumor assay, RC (renal cell) carcinoma; design: species or system CDF1 mice
Procedure: as §4, §5

[10] = female mice, ip daily x9, optimal dose mg/kg: sparsomycin 0.25, n-octyl 12.0, benzyl 10.0, 2a 2.5, 2e 13.3
[11] = female mice, ip daily x9, dose mg/kg: sparsomycin 0.25, n-octyl 12.0, benzyl 10.0, 2a 2.5, 2e 13.3
[12] = male mice, ip daily x9, optimal dose mg/kg: sparsomycin 0.125, n-octyl 20.0, benzyl 4.0, 2a 1.7
[13] = male mice, ip daily x9, dose mg/kg: sparsomycin 0.125, n-octyl 20.0, benzyl 4.0, 2a 1.7
[14] = female mice, ip daily x9, dose mg/kg: 2a 3.4
[15] = female mice, ip daily x9, dose mg/kg: 2a 2.3
[16] = male mice, ip daily x9, optimal dose mg/kg: sparsomycin 0.125, n-octyl 20.0, benzyl 2.7, 2a 1.1
[17] = male mice, ip daily x9, dose mg/kg: sparsomycin 0.125, n-octyl 20.0, benzyl 2.7, 2a 1.1

Structure (SMILES) | IC50 [2] [µM] | IC50 [3] [µM] | IC50 [4] [µM] | IC50 [5] [µM] | T/C (survival, treatment/control x 100%) [7, 10] [%] | cures (survivors in groups of 6 mice) [7, 11] | T/C (survival, treatment/control x 100%) [7, 12] [%] | cures (survivors in groups of 6 mice) [7, 13] | T/C (survival, treatment/control x 100%) [9, 16] [%] | cures (survivors in groups of 6 mice) [9, 17] | also measured
CSC[S@+]([O-])C[C@H](C)NC(=O)/C=C/c1c(C)[nH]c(=O)[nH]c1=O [2a, (Sc Rs)-1-(methylthiomethyl)sulfinyl-2-[β-(6-methyl-5-uracilyl)acrylamido]-propane] | 7.5 | 4.7 | 5.7 | 0.9 | 184 | 0/6 | 248 | 2/6 | 304 | 0/6 | IC50 [1]: 0.1 µM; IC50 ([6]; Escherichia coli, MRE600, 4 h, read-out: Growth inhibition E. coli MRE600 ED50): 5.6 µM; weight loss (T - C) [7, 11]: -1.4 g; weight loss (T - C) ([7]; male mice, ip daily x9 from 24 h after implant, dose mg/kg: sparsomycin 0.125, n-octyl 20.0, benzyl 4.0, 2a 1.7): -2.0 g; T/C (survival, treatment/control x 100%) ([8]; female mice, ip daily x9, optimal dose mg/kg: 2a 3.4): 170%; cures (survivors in groups of 6 mice) [8, 14]: 0/6; weight loss (T - C) [8, 14]: -2.3 g; T/C (survival, treatment/control x 100%) ([9]; female mice, ip daily x9, optimal dose mg/kg: 2a 2.3): 300%; cures (survivors in groups of 6 mice) [9, 15]: 0/6; weight loss (T - C) [9, 15]: -1.5 g; weight loss (T - C) [9, 17]: -0.6 g
CSC[S@+]([O-])C[C@H](CO)NC(=O)/C=C/c1c(C)[nH]c(=O)[nH]c1=O [Sparsomycin] | 5.2 | 3.2 | 2.8 | 0.1 | 121 | 0/6 | 105 | 0/6 | 100 | 0/6 | IC50 ([1]; soft agar 0.3%, 3 days continuous exposure, vs non-treated control cells): 0.4 µM; IC50 ([6]; Escherichia coli, MRE600, 4 h; read-out: Growth inhibition E. coli MRE600 ED50): 11 µM; weight loss (T - C) ([7]; mouse, in vivo, ip): -1.1 g; T/C (survival, treatment/control x 100%) ([8]; male mice, ip daily x9, optimal dose mg/kg: sparsomycin 0.125, n-octyl 22.5, benzyl 2.0, 2e 20.0): 88%; cures (survivors in groups of 6 mice) ([8]; male mice, ip daily x9, dose mg/kg: sparsomycin 0.125, n-octyl 22.5, benzyl 2.0, 2e 20.0): 0/6; weight loss (T - C) ([8]; mouse, in vivo, ip): -3.0 g; weight loss (T - C) ([9]; mouse, in vivo, ip): -1.7 g
